Experimental data taken from ChEMBL document CHEMBL1153251, “Biaryl piperidines as potent and selective delta opioid receptor ligands” (Bioorg Med Chem Lett, 2010).

Columns and labels:
Mu-type opioid receptor = Mu-type opioid receptor (Homo sapiens, UniProt P35372); assay: Displacement of [3H]diprenorphine from human mu opioid receptor expressed in CHO cells by liquid scintillation counting
[1] = molecular target: T1, Delta-type opioid receptor (Homo sapiens, UniProt P41143); assay: Displacement of [3H]diprenorphine from human delta opioid receptor expressed in CHO cells by liquid scintillation counting
T1 sequence (P41143 whole entry): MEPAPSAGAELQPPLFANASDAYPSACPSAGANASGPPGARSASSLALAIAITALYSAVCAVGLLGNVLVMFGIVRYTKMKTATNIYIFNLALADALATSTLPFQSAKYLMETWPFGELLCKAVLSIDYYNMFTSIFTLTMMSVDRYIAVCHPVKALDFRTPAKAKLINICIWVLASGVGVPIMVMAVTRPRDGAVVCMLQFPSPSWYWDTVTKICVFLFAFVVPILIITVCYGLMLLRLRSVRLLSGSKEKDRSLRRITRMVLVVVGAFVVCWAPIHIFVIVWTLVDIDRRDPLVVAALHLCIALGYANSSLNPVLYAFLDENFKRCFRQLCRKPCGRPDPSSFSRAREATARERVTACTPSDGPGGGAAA

[2] = molecular target: Kappa-type opioid receptor (Homo sapiens, UniProt P41145); assay: Displacement of [3H]diprenorphine from human kappa opioid receptor expressed in CHO cells by liquid scintillation counting
Chain of Kappa-type opioid receptor (P41145 whole entry): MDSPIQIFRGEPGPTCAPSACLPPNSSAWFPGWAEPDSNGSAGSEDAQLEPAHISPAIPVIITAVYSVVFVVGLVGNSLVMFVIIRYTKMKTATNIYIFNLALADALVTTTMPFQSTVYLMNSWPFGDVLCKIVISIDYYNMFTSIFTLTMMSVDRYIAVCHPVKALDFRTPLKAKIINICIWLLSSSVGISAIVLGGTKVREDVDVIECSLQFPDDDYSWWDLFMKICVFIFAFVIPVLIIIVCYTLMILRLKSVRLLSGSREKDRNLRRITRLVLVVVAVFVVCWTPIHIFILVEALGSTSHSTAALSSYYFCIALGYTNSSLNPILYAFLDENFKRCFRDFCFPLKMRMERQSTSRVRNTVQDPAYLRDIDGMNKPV

[3] = (§1) Clearance in human liver microsomes; assay type: ADME, Microsome; conditions: liver microsomes
[4] = molecular target: T1, Delta-type opioid receptor; assay: Antagonist activity at delta opioid receptor by GTPgammaS bunding assay; assay type: functional
Liver microsomes = assay: as §1; assay type: ADME, Microsome; conditions: microsomes

Chain of Mu-type opioid receptor (P35372 whole entry): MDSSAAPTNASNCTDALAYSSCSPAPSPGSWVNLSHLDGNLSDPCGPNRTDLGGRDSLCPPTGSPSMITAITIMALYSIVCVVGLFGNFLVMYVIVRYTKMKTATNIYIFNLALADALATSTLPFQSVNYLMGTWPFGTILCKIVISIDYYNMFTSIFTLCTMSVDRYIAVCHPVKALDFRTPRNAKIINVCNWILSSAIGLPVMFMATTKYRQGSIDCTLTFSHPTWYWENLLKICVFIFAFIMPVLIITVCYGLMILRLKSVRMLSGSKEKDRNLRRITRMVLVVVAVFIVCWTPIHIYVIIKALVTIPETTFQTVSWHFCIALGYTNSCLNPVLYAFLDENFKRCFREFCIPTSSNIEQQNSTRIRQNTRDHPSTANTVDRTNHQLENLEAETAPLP

SMILES	Ki (Mu-type opioid receptor) [nM]	Ki [1] [nM]	Ki [2] [nM]	CLint scaled [3] [mL/min/kg]	IC50 [4] [nM]	CL (Liver microsomes)
CCN(C)C(=O)c1ccc(C2(c3cccc(O)c3)CCCN(CC3CC3)C2)cc1 (stereo not drawn)	52	2.2	66	70	–	–
CCN(CC)C(=O)c1ccc(C2(c3cccc(O)c3)CCCN(Cc3nccs3)C2)cc1 (stereo not drawn)	> 890	3.5	163	> 300	16	–
CCN(CC)C(=O)c1ccc(C2(c3cccc(O)c3)CCN(CCc3ccccc3)CC2)cc1	66.5	0.9	95	239	–	–
C=CCN1CCC(c2ccc(C(=O)N(CC)CC)cc2)(c2cccc(O)c2)CC1	> 890	1.9	347	34.6	–	–
CCCC(C)CN1CCC(c2ccc(C(=O)N(CC)CC)cc2)(c2cccc(O)c2)CC1 (stereo not drawn)	> 890	1.8	> 890	–	–	Not Active
CCN(CC)C(=O)c1ccc(C2(c3cccc(C(N)=O)c3)CCCN(Cc3nccs3)C2)cc1 (stereo not drawn)	> 890	7	> 890	–	12	Not Active
CCCC(C)CN1CCC(c2ccc(C(O)(CC)CC)cc2)(c2cccc(C(N)=O)c2)CC1 (stereo not drawn)	380	2	45	108	4.7	–
CCN(CC)C(=O)c1ccc(C2(c3cccc(O)c3)CCCN(Cc3ncc[nH]3)C2)cc1 (stereo not drawn)	> 890	1.2	> 890	230	–	–
CCN(CC)C(=O)c1ccc(C2(c3cccc(O)c3)CCCN(CC(F)(F)F)C2)cc1 (stereo not drawn)	> 890	2.9	24	> 300	–	–
CCCCN1CCCC(c2ccc(C(=O)N(CC)CC)cc2)(c2cccc(O)c2)C1 (stereo not drawn)	> 890	6.2	> 890	113	55	–
CC(C)(O)c1ccc(C2(c3cccc(O)c3)CCCN(CC3CC3)C2)cc1 (stereo not drawn)	110	39	41	22	–	–
CCCC(C)CN1CCC(c2ccc(C(=O)N(C)C)cc2)(c2cccc(O)c2)CC1 (stereo not drawn)	> 890	11	150	80	72	–
CCN(CC)C(=O)c1ccc(C2(c3cccc(O)c3)CCCN(CC3CC3)C2)cc1 (stereo not drawn)	35	0.8	24	89	7.1	–
CCC(O)(CC)c1ccc(C2(c3cccc(C(N)=O)c3)CCN(CC3CC3)CC2)cc1	> 890	2.3	79	26.1	282	–
CCN(CC)C(=O)c1ccc(C2(c3cccc(O)c3)CCN(CC3CC3)CC2)cc1	> 890	9	440	62.9	155	–
